{"source": "patent US20070154567A1", "about": "“Use of mercury to treat cancer” (priority 2006, published 2007)", "test_system": "non-metastatic osteosarcoma on distal right radius", "test": "Oral inorganic mercury (II) treatment of a pet Rottweiler: blood data and clinical follow-up", "assay_type": "in vivo, dog", "design": "MCV / MCH / Neutrophils, absolute / Bands / Lymphocytes, absolute / Monocytes, absolute / Eosinophils, absolute / Basophils, absolute: unit not given here", "excerpt": "An 8 year old, 108 lbs female Rottweiler, was diagnosed with non-metastatic osteosarcoma on distal right radius.\nEarlier cisplatin chemotherapy was attempted, but was stopped due to unacceptable side effects one month before the inorganic mercury treatment. Prior to treatment, the dog had high alkaline phosphatase (ALP) level that had been rising as disease progressed (compare Day (−57) and Day 1 in Table 2). ALP is a known progression marker for osteosarcoma (Kirpensteijn et al., 2002, Vet Pathol 39:240-246 and Gaetano Bacci et al., 2002, Oncology Reports 9: 171-175). The dog completed the first 30-day treatment course followed by a 30-day non-treatment period and started the second treatment course for at least up to day 65. The formulation contained 1 mM mercury acetate in 20 mM sodium acetate buffer, pH 4.5, with 100 mM sucrose and 150 mM sodium chloride additives. It was introduced orally to the dog three times a day at 0.5 micromole Hg^2+/kg/day. […] This drop in ALP level (˜250 Units/month) was significant considering that, prior to starting the mercury (II) treatment, it had been raising at ˜50 U/month rate. As observed by the attending veterinarian, the dog's appetite was increased and the dog gained 5 lbs during that period. […] During this period the condition of the dog worsened and was accompanied by an increase in ALP level (compare Day 32 and Day 65 in Table 3). The dog was euthanized on Day 91.", "note": "“And” between values parts separate entries of the source, which are not always exact repeats. Equal values may be shown once.", "data": [{"molecule": "CC(=O)[O-].CC(=O)[O-].[Hg+2]", "note": "[inorganic mercury (II), mercury acetate]", "values": [{"measurement": "condition of the dog", "setting": "2nd treatment course, formulation administered with food in violation of the protocol", "result": "worsened"}, {"measurement": "ALT (SGPT)", "setting": "Day 1", "result": 61, "unit": "U/L"}, {"measurement": "AST (SGOT)", "setting": "Day 1", "result": 28, "unit": "U/L"}, {"measurement": "Albumin", "setting": "Day 1", "result": 3.7, "unit": "g/dL"}, {"measurement": "Albumin/Globulin Ratio", "setting": "Day 1", "result": 1.1}, {"measurement": "Alkaline Phosphatase (ALP)", "setting": "Day 1", "result": "794 U/L and 794 (H) U/L"}, {"measurement": "Amylase", "setting": "Day 1", "result": 862, "unit": "U/L"}, {"measurement": "BUN/Creatinine Ratio", "setting": "Day 1", "result": 9}, {"measurement": "Bands", "setting": "Day 1", "result": 0}, {"measurement": "Basophils, absolute", "setting": "Day 1", "result": 0}, {"measurement": "CPK", "setting": "Day 1", "result": 175, "unit": "U/L"}, {"measurement": "Calcium", "setting": "Day 1", "result": 10.6, "unit": "mg/dL"}, {"measurement": "Chloride", "setting": "Day 1", "result": 116, "unit": "mE/L"}, {"measurement": "Cholesterol", "setting": "Day 1", "result": 240, "unit": "mg/dL"}, {"measurement": "Creatinine", "setting": "Day 1", "result": 1.2, "unit": "mg/dL"}, {"measurement": "Eosinophils, (%)", "setting": "Day 1", "result": 7, "unit": "%"}, {"measurement": "Eosinophils, absolute", "setting": "Day 1", "result": 770}, {"measurement": "Globulin", "setting": "Day 1", "result": 3.4, "unit": "g/dL"}, {"measurement": "Glucose", "setting": "Day 1", "result": 77, "unit": "mg/dL"}, {"measurement": "Hematocrit", "setting": "Day 1", "result": 41.3, "unit": "%"}, {"measurement": "Hemoglobin", "setting": "Day 1", "result": 13.7, "unit": "g/dL"}, {"measurement": "Lymphocytes, (%)", "setting": "Day 1", "result": 26, "unit": "%"}, {"measurement": "Lymphocytes, absolute", "setting": "Day 1", "result": 2860}, {"measurement": "MCH", "setting": "Day 1", "result": 22.2}, {"measurement": "MCHC", "setting": "Day 1", "result": 33.2}, {"measurement": "MCV", "setting": "Day 1", "result": 67}, {"measurement": "Monocytes, (%)", "setting": "Day 1", "result": 6, "unit": "%"}, {"measurement": "Monocytes, absolute", "setting": "Day 1", "result": 660}, {"measurement": "Neutrophils, (%)", "setting": "Day 1", "result": 61, "unit": "%"}, {"measurement": "Neutrophils, absolute", "setting": "Day 1", "result": 6710}, {"measurement": "Phosphorus", "setting": "Day 1", "result": 5.4, "unit": "mg/dL"}, {"measurement": "Platelet count", "setting": "Day 1", "result": "475 (H) 10^3/microl"}, {"measurement": "Potassium", "setting": "Day 1", "result": 5.2, "unit": "mE/L"}, {"measurement": "RBC", "setting": "Day 1", "result": "6.16 10^6/microl"}, {"measurement": "Sodium", "setting": "Day 1", "result": 152, "unit": "mE/L"}, {"measurement": "Total Billirubin", "setting": "Day 1", "result": 0.1, "unit": "mg/dL"}, {"measurement": "Total Protein", "setting": "Day 1", "result": 7.1, "unit": "g/dL"}, {"measurement": "Urea Nitrogen", "setting": "Day 1", "result": 11, "unit": "mg/dL"}, {"measurement": "WBC", "setting": "Day 1", "result": "11.0 10^3/microl"}, {"measurement": "drop in ALP level", "setting": "Day 1 to Day 32, first treatment course", "result": "~250", "unit": "Units/month"}, {"measurement": "ALT (SGPT)", "setting": "Day 32", "result": 61, "unit": "U/L"}, {"measurement": "AST (SGOT)", "setting": "Day 32", "result": 27, "unit": "U/L"}, {"measurement": "Albumin", "setting": "Day 32", "result": 3.5, "unit": "g/dL"}, {"measurement": "Albumin/Globulin Ratio", "setting": "Day 32", "result": 1.1}, {"measurement": "Alkaline Phosphatase (ALP)", "setting": "Day 32", "result": "539 U/L and 539 (H) U/L"}, {"measurement": "Amylase", "setting": "Day 32", "result": 864, "unit": "U/L"}, {"measurement": "BUN/Creatinine Ratio", "setting": "Day 32", "result": 12}, {"measurement": "Bands", "setting": "Day 32", "result": 0}, {"measurement": "CPK", "setting": "Day 32", "result": 198, "unit": "U/L"}, {"measurement": "Calcium", "setting": "Day 32", "result": 10.5, "unit": "mg/dL"}, {"measurement": "Chloride", "setting": "Day 32", "result": 118, "unit": "mE/L"}, {"measurement": "Cholesterol", "setting": "Day 32", "result": 251, "unit": "mg/dL"}, {"measurement": "Creatinine", "setting": "Day 32", "result": 1.3, "unit": "mg/dL"}, {"measurement": "Eosinophils, (%)", "setting": "Day 32", "result": 5, "unit": "%"}, {"measurement": "Eosinophils, absolute", "setting": "Day 32", "result": 495}, {"measurement": "Globulin", "setting": "Day 32", "result": 3.3, "unit": "g/dL"}, {"measurement": "Glucose", "setting": "Day 32", "result": 102, "unit": "mg/dL"}, {"measurement": "Hematocrit", "setting": "Day 32", "result": 39.1, "unit": "%"}, {"measurement": "Hemoglobin", "setting": "Day 32", "result": 13.9, "unit": "g/dL"}, {"measurement": "Lymphocytes, (%)", "setting": "Day 32", "result": 35, "unit": "%"}, {"measurement": "Lymphocytes, absolute", "setting": "Day 32", "result": 3465}, {"measurement": "MCH", "setting": "Day 32", "result": 24.6}, {"measurement": "MCHC", "setting": "Day 32", "result": 35.5}, {"measurement": "MCV", "setting": "Day 32", "result": 69}, {"measurement": "Monocytes, (%)", "setting": "Day 32", "result": 5, "unit": "%"}, {"measurement": "Monocytes, absolute", "setting": "Day 32", "result": 495}, {"measurement": "Neutrophils, (%)", "setting": "Day 32", "result": 55, "unit": "%"}, {"measurement": "Neutrophils, absolute", "setting": "Day 32", "result": 5445}, {"measurement": "Phosphorus", "setting": "Day 32", "result": 5.5, "unit": "mg/dL"}, {"measurement": "Platelet count", "setting": "Day 32", "result": "213 10^3/microl"}, {"measurement": "Potassium", "setting": "Day 32", "result": 5.2, "unit": "mE/L"}, {"measurement": "RBC", "setting": "Day 32", "result": "5.64 10^6/microl"}, {"measurement": "Sodium", "setting": "Day 32", "result": 146, "unit": "mE/L"}, {"measurement": "Total Billirubin", "setting": "Day 32", "result": 0.2, "unit": "mg/dL"}, {"measurement": "Total Protein", "setting": "Day 32", "result": 6.8, "unit": "g/dL"}, {"measurement": "Urea Nitrogen", "setting": "Day 32", "result": 16, "unit": "mg/dL"}, {"measurement": "WBC", "setting": "Day 32", "result": "9.9 10^3/microl"}, {"measurement": "ALT (SGPT)", "setting": "Day 65", "result": 62, "unit": "U/L"}, {"measurement": "AST (SGOT)", "setting": "Day 65", "result": 30, "unit": "U/L"}, {"measurement": "Albumin", "setting": "Day 65", "result": 3.8, "unit": "g/dL"}, {"measurement": "Albumin/Globulin Ratio", "setting": "Day 65", "result": 1.0}, {"measurement": "Alkaline Phosphatase (ALP)", "setting": "Day 65", "result": "606 (H) U/L"}, {"measurement": "Amylase", "setting": "Day 65", "result": 1003, "unit": "U/L"}, {"measurement": "BUN/Creatinine Ratio", "setting": "Day 65", "result": 13}, {"measurement": "Bands", "setting": "Day 65", "result": 0}, {"measurement": "Basophils, absolute", "setting": "Day 65", "result": 0}, {"measurement": "CPK", "setting": "Day 65", "result": 171, "unit": "U/L"}, {"measurement": "Calcium", "setting": "Day 65", "result": 10.9, "unit": "mg/dL"}, {"measurement": "Chloride", "setting": "Day 65", "result": 113, "unit": "mE/L"}, {"measurement": "Cholesterol", "setting": "Day 65", "result": 244, "unit": "mg/dL"}, {"measurement": "Creatinine", "setting": "Day 65", "result": 1.2, "unit": "mg/dL"}, {"measurement": "Eosinophils, (%)", "setting": "Day 65", "result": 8, "unit": "%"}, {"measurement": "Eosinophils, absolute", "setting": "Day 65", "result": 808}, {"measurement": "Globulin", "setting": "Day 65", "result": "3.8 (H) g/dL"}, {"measurement": "Glucose", "setting": "Day 65", "result": 87, "unit": "mg/dL"}, {"measurement": "Hematocrit", "setting": "Day 65", "result": 42.3, "unit": "%"}, {"measurement": "Hemoglobin", "setting": "Day 65", "result": 16.1, "unit": "g/dL"}, {"measurement": "Lymphocytes, (%)", "setting": "Day 65", "result": 33, "unit": "%"}, {"measurement": "Lymphocytes, absolute", "setting": "Day 65", "result": 3333}, {"measurement": "MCH", "setting": "Day 65", "result": 24.8}, {"measurement": "MCHC", "setting": "Day 65", "result": "38.1 (H)"}, {"measurement": "MCV", "setting": "Day 65", "result": 65}, {"measurement": "Monocytes, (%)", "setting": "Day 65", "result": 4, "unit": "%"}, {"measurement": "Monocytes, absolute", "setting": "Day 65", "result": 404}, {"measurement": "Neutrophils, (%)", "setting": "Day 65", "result": 55, "unit": "%"}, {"measurement": "Neutrophils, absolute", "setting": "Day 65", "result": 5555}, {"measurement": "Phosphorus", "setting": "Day 65", "result": 5.1, "unit": "mg/dL"}, {"measurement": "Platelet count", "setting": "Day 65", "result": "368 10^3/microl"}, {"measurement": "Potassium", "setting": "Day 65", "result": 4.6, "unit": "mE/L"}, {"measurement": "RBC", "setting": "Day 65", "result": "6.49 10^6/microl"}, {"measurement": "Sodium", "setting": "Day 65", "result": 150, "unit": "mE/L"}, {"measurement": "Total Billirubin", "setting": "Day 65", "result": 0.1, "unit": "mg/dL"}, {"measurement": "Total Protein", "setting": "Day 65", "result": "7.5 (H) g/dL"}, {"measurement": "Urea Nitrogen", "setting": "Day 65", "result": 15, "unit": "mg/dL"}, {"measurement": "WBC", "setting": "Day 65", "result": "10.1 10^3/microl"}, {"measurement": "weight gained", "setting": "first 30 days of treatment", "result": 5, "unit": "lbs"}, {"measurement": "appetite", "setting": "first 30 days of treatment, observed by attending veterinarian", "result": "increased"}]}]}
